{"source": "patent US12697328B2", "about": "“Methods for treating metastasis with cathepsin C inhibitors” (Shanghai Institute of Nutrition and Health, Chinese Academy …, priority 2020, dated 2026)", "key": {"murine neutrophils [1]": {"system": "murine neutrophils", "experiment": "Two-chamber migration of neutrophils recruited by media of neutrophils pre-treated with 4T07 CM", "assay_type": "cell-based", "settings": "media of neutrophils pre-treated with CM of 4T07 with CTSC overexpressed; FIG. 7E", "description": "The procedure of two-chamber migration assays was previously described (Zhuang et al., “Differential effects on lung and bone metastasis of breast cancer by Wnt signalling inhibitor DKK1,” Nat. Cell Biol. 19:1274-1285 (2017)). Briefly, 5×10^5 freshly isolated neutrophils in RPMI 1640 were added to the upper chamber (363096, BD), and a 1:1 mixture of RPMI 1640 and cancer cell CM, or medium from neutrophils cultured in cancer cell CM, was added to the lower chamber as the chemoattractant. The migrated cells in the lower chamber were counted after 3 h."}, "murine neutrophils [2]": {"system": "murine neutrophils", "experiment": "In vitro NET analysis of neutrophils cultured in 4T07 or 4T1 conditioned media", "assay_type": "cell-based", "settings": "Sivelestat 10 μM or DNase I 1 μg/ml; FIG. 8F", "description": "To assess NET formation, neutrophils (2.5×10^5 cells) were seeded on coverslips coated with poly-L-lysine (P4707, Sigma) in 24-well plates for 30 min before adding 10% cancer cell CM, Sivelestat (10 μM), PMA (20 nM, Sigma), Cl-amidine (100 μM, Selleck) and/or DNase I (1 μg/ml). After 12 to 16 h at 37° C., neutrophils were fixed with 4% paraformaldehyde (PFA) for 10 min at room temperature, washed twice with PBS and permeabilized in 0.1% Triton X-100 for 5 min. […] NET area quantification was performed using the DANA method (Rebernick et al., “DNA area and NETosis analysis (DANA): a high-throughput method to quantify neutrophil extracellular traps in fluorescent microscope images,” Biol. Proced. Online 20:7 (2018)). Briefly, the areas of structures depicting NET morphology and positive for Ci-H3 or total H3 were counted as NETotic cell areas, and the NET area percentages were analyzed as NETotic cell areas divided by total DNA areas. The percentages of NETotic cells were analyzed as previously described ([…]). […] The percentage of NETotic cells was counted as the numbers of NETotic cells divided by the total cell numbers. […]"}, "[3]": {"system": "pancreatic cancer cells KP4", "experiment": "Mouse xenograft, pancreatic tumor cells by spleen injection (liver metastasis)", "assay_type": "in vivo", "settings": "nude mice, FIG. 12C", "description": "A series of mouse xenograft studies are conducted by injecting liver and pancreatic tumor cells into nude mice by spleen injection. Then the mice are treated by brensocatib, and the growth of the tumors in liver is observed."}, "gastric cancer cells AGS": {"system": "gastric cancer cells AGS", "experiment": "NET-promoted tumor sphere formation, gastric cancer", "assay_type": "cell-based", "settings": "neutrophil medium, CM with or without brensocatib, FIG. 11M", "description": "(§1) To test the therapeutic effects of brensocatib in different cancer types in vitro, the ability of brensocatib to inhibit NET-promoted tumor sphere formation is investigated. The neutrophils are cultured with conditioned medium from tumor cells of colon cancer, liver cancer, lung cancer, gastric cancer and pancreatic cancer with or without brensocatib treatment to activate NETosis, and then the neutrophil medium was used in tumor sphere formation of these cancer cells to analyze the effect of neutrophil medium to facilitate tumor cell growth. The amount of tumorsphere in each sample is then determined by imaging."}, "lung cancer cells A549": {"system": "lung cancer cells A549", "experiment": "NET-promoted tumor sphere formation, lung cancer", "assay_type": "cell-based", "settings": "neutrophil medium, CM with or without brensocatib, FIG. 11L", "description": "as §1"}, "neutrophils": {"system": "neutrophils", "experiment": "Neutrophil recruitment by cancer cell conditioned medium (Transwell chambers)", "assay_type": "cell-based, mice", "settings": "CM of liver-metastatic breast cancer and bone-metastatic lung cancer cells, with or without brensocatib; FIGS. 11G, J", "description": "To isolate neutrophil from bone marrow, bone marrow cells from 8 to 12-weeks-old BALB/c mice were harvested in sterile Hank's buffered salt solution (HBSS) without Ca^2+/Mg^2+ (14185052, Invitrogen), and laid on top of a 2-layer Percoll (17089102, GE Healthcare) gradient (72% and 63.5% in HBSS), followed by centrifugation at 1,200 g for 30 min at 25° C. Neutrophils enriched in the interface of 63.5%-72% fractions were confirmed to be of >95% purity by flow cytometry analysis. To isolate neutrophils from peripheral blood of mice, whole blood was collected via cardiac puncture (1 ml per animal) and suspended in HBSS (2 ml per animal) with 15 mM EDTA. After centrifugation (400 g, 10 min, 4° C.), white cells were resuspended in 2 ml HBSS with 2 mM EDTA. Then, the cells were centrifuged (1500 g, 30 min, room temperature) in a three-layer Percoll gradient (78%, 69%, and 52%) without braking. […] The purity of the isolated neutrophils was determined by May-Grunwald-Giemsa staining (40751ES02, Yea-sen). […]\nThe procedure of two-chamber migration assays was previously described (Zhuang et al., “Differential effects on lung and bone metastasis of breast cancer by Wnt signalling inhibitor DKK1,” Nat. Cell Biol. 19:1274-1285 (2017)). […] The migrated cells in the lower chamber were counted after 3 h. […]"}, "[4]": {"system": "pancreatic cancer cells KP4", "experiment": "NET-promoted tumor sphere formation, pancreatic cancer", "assay_type": "cell-based", "settings": "neutrophil medium, CM with or without brensocatib, FIG. 11O", "description": "as §1"}}}
{"smiles": "CC(C)(C)C(=O)Oc1ccc(S(=O)(=O)Nc2ccccc2C(=O)NCC(=O)O)cc1", "note": "[Silvelestat]", "values": [{"measurement": "migration of murine neutrophils", "setting": "murine neutrophils [1]", "value": "significantly reduced"}, {"measurement": "NET formation induced by CTSC (percentage area covered by NETs)", "setting": "murine neutrophils [2]", "value": "blocks the ability of CTSC to induce NET formation"}]}
{"smiles": "Cn1c(=O)oc2ccc(-c3ccc(C[C@@H](C#N)NC(=O)[C@@H]4CNCCCO4)cc3)cc21", "note": "[brensocatib, (2S)—N-{(1S)-1-cyano-2-[4-(3-methyl-2-oxo-2,3-dihydro-1,3-benzoxazol-5-yl)phenyl]ethyl}-1,4-oxazepane-2-carboxamide]", "values": [{"measurement": "metastatic growth of pancreatic cancer cells KP4 in liver", "setting": "[3]", "value": "significantly inhibits"}, {"measurement": "NET-promoted tumor sphere formation (in vitro tumor growth)", "setting": "gastric cancer cells AGS", "value": "inhibit in vitro tumor growth"}, {"measurement": "NET-promoted tumor sphere formation (in vitro tumor growth)", "setting": "lung cancer cells A549", "value": "inhibit in vitro tumor growth"}, {"measurement": "neutrophil recruitment", "setting": "neutrophils", "value": "significantly reduced"}, {"measurement": "NET-promoted tumor sphere formation (in vitro tumor growth)", "setting": "[4]", "value": "inhibit in vitro tumor growth"}]}
